In US20220091133A1, “METHODS AND ASSAYS FOR IMMUNE PHENOTYPING” (Washington University, priority 2020, published 2022):

What was measured:
[1] = system: peripheral blood mononuclear cells (T cell IFN-γ production); format: cell-based, human
[2] = system: pSTAT5 in CD4 and CD8 T cells; assay: Mass cytometry (CyTOF) of intracellular phospho-STAT5 in T cells; format: in vivo, human
From the text: To measure the specific molecular effects underlying the increased T cell responsiveness induced by IL-7, we measured intracellular levels of phospho-STATS (pSTAT5) in CD4 and CD8 T cells using mass cytometry. STATS is the primary T cell differentiation signal downstream of the IL-7 receptor [12]. T cells were identified based on surface marker staining (CD45+/CD15−/CD66b−/CD56−/CD3+). We then measured the pSTAT5 signal intensity. IL-7 was associated with a 3-fold increase in activated STATS in CD4-T cells and a 2-fold increase in CD8-T cells (FIG. 28C).

[3] = system: Trichosporon asahii and Saksenaea species; assay: Tissue, wound, blood and bone cultures of the fungal wound sepsis patient; format: in vivo, human
From the text: They were aggressively treated with daily or alternating-day operative debridement, broad-spectrum parenteral and topical antibacterial and antifungal therapy. Antimicrobial therapy included ceftazidime, metronidazole, trimethoprim-sulfamethoxazole, micafungin, amphotericin B, and posaconazole (FIG. 29), as well as VERAFLO vac instillation of antimicrobials into the wound bed. The patient's polymicrobial soft tissue infection continued to advance and was accompanied by multisystem organ failure and shock. Over a 4-week period, they required debridement of >3000 cm^2 of skin, subcutaneous tissue, and muscle involving the entire perineum, bilateral thighs, buttocks, and circumferential abdominal wall (FIG. 28B).
Tissue histology also became negative for fungus at approximately the same time as tissue cultures (FIG. 28E).

[4] = system: PBMCs (myeloid cell TNF-α production); assay: PBMC ELISpot, LPS-stimulated TNF-α production (Example 2); format: cell-based, human
Procedure: (§1) Fresh whole blood samples were processed within 90 min of collection as previously described (28). Briefly, blood was diluted in an equal volume of PBS and layered carefully on Ficoll Paque PLUS (GE Healthcare). The PBMC fraction was isolated following centrifugation at 500×g for 30 min at room temperature. The number of total PBMCs was determined with a Vi-CELL Viability Analyzer (Beckman Coulter, Brea, Calif.). Flow cytometry was performed on PBMC fraction for cell typing.
Innate and adaptive immune function was assessed using ELISpot analysis by measurement of the production of IFN-γ and TNF-α in ex vivo-stimulated cells following overnight culture. Capture Ab precoated 96-well polyvinylidene difluoride-backed strip plates were used for single color enzymatic assays (ImmunoSpot; Cellular Technology [CTL], Cleveland, Ohio) for detection of human IFN-γ and TNF-α. ELISpot culture procedure was followed as directed using instructions from the ELISpot kit. Samples were run in duplicate for each test condition. Plates were prepared with stimulant and were incubated at 37° C. and 5% CO2 for 30 min prior to plating cells. Identical conditions were prepared for comparison of whole blood assay to PBMC assay, and culture media alone was used as a negative control. Combination of 500 ng/ml of anti-CD3 (clone HIT3a; BioLegend) with 2.5 μg/ml of anti-CD28 (clone CD28.2; BioLegend) Abs were used to induce IFN-γ, and 2.5 ng/ml LPS (from Salmonella abortus equi S-form, ALX-581-009; Enzo Life Sciences, Farmingdale, N.Y.) was used to induce TNF-α wells. Total well volume for all samples was 200 μl. PBMCs were plated into wells in quantities of 2.5×10^4 cells per well for IFN-γ and 2.5×10^3 cells per well for TNF-α. […]
(§2) Samples were scanned, analyzed, and quality controlled for spot count, spot area, and TWI using a Cellular Technology series 6 ImmunoSpot Universal Analyzer with ImmunoSpot 7.0 professional software (Cellular Technology Analyzers, Shaker Heights, Ohio). […]
The number of cytokine-secreting cells present in each ELISpot well is referred to as spot-forming units (SFU) and is reported in two distinct ways. […] The number of lymphocytes in each well was determined based upon the absolute lymphocyte count as measured by the patients' complete blood count. For ELISpot studies involving PBMCs, flow cytometry was performed on the PBMC fraction, and the number of lymphocytes, monocytes, and residual neutrophils were determined. […] Samples were acquired on FACScan (Becton Dickenson, Franklin Lakes, N.J.) with a five-color modification (CyTek Biosciences, Fremont, Calif.) and analyzed using FlowJo 10.2 (FlowJo, Ashland, Oreg.) as previously described (28). […]

[5] = system: sepsis-induced lymphopenia; conditions: clinical trial, reference 54; cited from earlier work
[6] = system: PBMCs (T cell IFN-γ production); assay: PBMC ELISpot, CD3/CD28-stimulated IFN-γ production (Example 2); format: cell-based, human
Procedure: as §1
Innate and adaptive immune function was assessed using ELISpot analysis by measurement of the production of IFN-γ and TNF-α in ex vivo-stimulated cells following overnight culture. […] PBMCs were plated into wells in quantities of 2.5×10^4 cells per well for IFN-γ and 2.5×10^3 cells per well for TNF-α. […]
as §2
The number of cytokine-secreting cells present in each ELISpot well is referred to as spot-forming units (SFU) and is reported in two distinct ways. […] The number of lymphocytes in each well was determined based upon the absolute lymphocyte count as measured by the patients' complete blood count. […]

[7] = system: SARS-CoV-2; assay: COVID-19-specific antibody levels (Example 5); format: in vivo, human; conditions: critically ill COVID-19 patient
[8] = system: lymphocytes in infected wound; assay: Anti-CD3 immunohistochemical staining of wound biopsies; format: in vivo, human; conditions: after initiation of IL-7
From the text: A beneficial effect of IL-7 in infectious disorders is to increase expression of lymphocyte adhesion molecules and induce lymphocyte trafficking to sites of infection.

Substance: IL-7: recombinant human IL-7, immunoadjuvant and potent T cell activator; R&D Systems ex vivo, RevImmune for patients
- T cell function on coincubation with both dexamethasone and IL-7 [1]: restored
- increase in activated STAT5 (pSTAT5 signal intensity) ([2]; CD4-T cells): 3 fold
- increase in activated STAT5 (pSTAT5 signal intensity) ([2]; CD8-T cells): 2 fold
- STAT5 expression in lymphocytes after initiation of IL-7 compared with pretreatment ([2]; CyTOF, geometric mean raw signal intensity): doubling
- tissue cultures after initiation of IL-7 therapy ([3]; by the fifth dose of IL-7): persistently negative cultures
- time blood, wound and bone cultures stayed negative for bacterial or fungal pathogens after completing IL-7 therapy ([3]; human, in vivo): 40 days
- septic patients in whom IL-7 increased TNF-α production ([4]; PBMC ELISpot, patients out of total): 13/19
- change in TNF-α SFUs with IL-7 ([4]; PBMC, CINS): significant increase
- change in TNF-α SFUs with IL-7 ([4]; PBMCs, healthy subjects): no change
- overall increase in TNF-α SFUs with IL-7 ([4]; PBMCs, septic patients, p<0.01): 97%
- effect on sepsis-induced lymphopenia [5]: reversed sepsis-induced lymphopenia
- tolerability of IL-7 in patients with sepsis [5]: well tolerated
- effect of IL-7 on IFN-γ SFUs ([6]; PBMC, healthy subjects and CINS patients): significantly increased
- effect of IL-7 on T cell IFN-γ production ([6]; PBMCs, septic patients, p<0.0001): restore T cell IFN-γ production
- Coronavirus disease immunoglobulin G/M/A ([7]; Post IL-7, Day 12): High positive
- Coronavirus disease immunoglobulin G/M/A ([7]; Post IL-7, Day 21): High positive
- number of CD3+ lymphocytes in biopsies from the infected wound [8]: marked increase
